Results taken from the NIST ThermoML archive (doi:10.1016/j.jct.2018.11.004).
± gives the expanded uncertainty stated by the source.

Assay: molar heat capacity at saturation pressure
Conditions: Crystal 1, Small (less than 1 g) adiabatic calorimetry

CC(C)[C@@H]1CC[C@@H](C)C[C@H]1O [L-menthol]
Conditions	molar heat capacity [J/K/mol]
5.02 K	0.8545 ± 0.033
5.31 K	1.027 ± 0.037
5.63 K	1.231 ± 0.041
5.95 K	1.445 ± 0.045
6.26 K	1.675 ± 0.05
6.62 K	1.937 ± 0.056
7 K	2.276 ± 0.063
7.37 K	2.577 ± 0.069
7.74 K	2.937 ± 0.076
8.14 K	3.382 ± 0.086
8.58 K	3.847 ± 0.095
9.03 K	4.373 ± 0.1
9.49 K	4.87 ± 0.11
9.99 K	5.512 ± 0.13
10.51 K	6.205 ± 0.14
11.04 K	6.889 ± 0.15
11.61 K	7.681 ± 0.17
12.2 K	8.523 ± 0.18
12.83 K	9.473 ± 0.2
13.48 K	10.42 ± 0.21
14.15 K	11.42 ± 0.22
14.89 K	12.53 ± 0.24
15.66 K	13.66 ± 0.26
16.43 K	14.93 ± 0.27
17.26 K	16.13 ± 0.29
18.12 K	17.43 ± 0.3
19.04 K	18.89 ± 0.31
20 K	20.23 ± 0.32
21.02 K	21.71 ± 0.34
22.08 K	23.27 ± 0.35
23.2 K	24.92 ± 0.36
24.41 K	26.58 ± 0.36
25.66 K	28.24 ± 0.37
26.93 K	29.92 ± 0.37
28.27 K	31.55 ± 0.36
29.67 K	33.28 ± 0.36
31.12 K	34.98 ± 0.34
32.66 K	36.66 ± 0.34
34.28 K	38.41 ± 0.33
36 K	40.06 ± 0.32
37.89 K	42.03 ± 0.3
39.9 K	43.93 ± 0.29
42.02 K	45.96 ± 0.3
44.24 K	48.03 ± 0.31
46.54 K	50.11 ± 0.32
48.92 K	52.21 ± 0.33
51.35 K	54.32 ± 0.34
53.83 K	56.47 ± 0.35
56.32 K	58.63 ± 0.36
58.78 K	60.81 ± 0.38
61.29 K	62.85 ± 0.39
64.03 K	65.18 ± 0.4
66.85 K	67.74 ± 0.41
69.53 K	70.14 ± 0.43
72.08 K	72.41 ± 0.44
74.6 K	74.48 ± 0.45
77.11 K	76.77 ± 0.46
79.66 K	78.77 ± 0.47
79.78 K	79.07 ± 0.47
81.5 K	80.47 ± 0.48
82.26 K	80.88 ± 0.48
83.22 K	81.89 ± 0.49
84.79 K	83.06 ± 0.49
84.94 K	83.28 ± 0.49
86.67 K	84.77 ± 0.5
87.34 K	85.27 ± 0.51
88.39 K	86.22 ± 0.51
89.9 K	87.37 ± 0.52
90.12 K	87.73 ± 0.52
91.85 K	89.21 ± 0.53
92.42 K	89.76 ± 0.53
93.59 K	90.65 ± 0.54
94.94 K	91.69 ± 0.54
95.32 K	92.09 ± 0.55
97.06 K	93.51 ± 0.55
97.47 K	93.81 ± 0.55
98.8 K	95.01 ± 0.56
100.02 K	95.95 ± 0.56
100.55 K	96.44 ± 0.57
102.3 K	97.81 ± 0.57
102.58 K	98.22 ± 0.57
104.04 K	99.24 ± 0.58
105.18 K	100.4 ± 0.6
105.8 K	100.7 ± 0.6
107.55 K	102 ± 0.6
107.78 K	102.4 ± 0.6
109.31 K	103.5 ± 0.6
111.06 K	104.9 ± 0.6
112.82 K	106.2 ± 0.6
114.58 K	107.7 ± 0.6
116.34 K	109 ± 0.6
118.11 K	110.4 ± 0.6
119.87 K	111.7 ± 0.6
121.64 K	113.1 ± 0.6
123.41 K	114.4 ± 0.7
125.18 K	115.8 ± 0.7
126.95 K	117.2 ± 0.7
128.73 K	118.4 ± 0.7
130.5 K	119.8 ± 0.7
132.28 K	121.1 ± 0.7
134.07 K	122.4 ± 0.7
135.85 K	123.7 ± 0.7
137.63 K	125.1 ± 0.7
139.41 K	126.4 ± 0.7
141.2 K	127.7 ± 0.7
142.99 K	128.9 ± 0.7
144.77 K	130.2 ± 0.7
146.56 K	131.5 ± 0.7
148.36 K	132.8 ± 0.7
150.15 K	134.1 ± 0.7
151.94 K	135.3 ± 0.8
153.73 K	136.6 ± 0.8
155.53 K	137.9 ± 0.8
157.32 K	139.1 ± 0.8
159.12 K	140.4 ± 0.8
160.91 K	141.7 ± 0.8
162.72 K	143 ± 0.8
164.52 K	144.3 ± 0.8
166.32 K	145.5 ± 0.8
168.12 K	146.8 ± 0.8
169.92 K	148 ± 0.8
171.73 K	149.2 ± 0.8
173.53 K	150.5 ± 0.8
175.33 K	151.8 ± 0.8
177.14 K	153.1 ± 0.8
178.95 K	154.4 ± 0.8
180.76 K	155.6 ± 0.9
182.56 K	156.9 ± 0.9
184.37 K	158.2 ± 0.9
186.18 K	159.4 ± 0.9
188 K	160.7 ± 0.9
189.81 K	162.1 ± 0.9
191.62 K	163.3 ± 0.9
193.43 K	164.6 ± 0.9
195.25 K	165.9 ± 0.9
197.06 K	167.2 ± 0.9
198.87 K	168.5 ± 0.9
200.69 K	169.8 ± 0.9
202.5 K	171.1 ± 0.9
204.32 K	172.4 ± 0.9
206.14 K	173.7 ± 0.9
207.95 K	175 ± 0.9
209.77 K	176.4 ± 1
211.6 K	177.6 ± 1
